For the test, the system named is mice, ADJ-PC-20 plasma cell tumor sc, T/C %. Kind of test: NCI In Vivo Anticancer Drug Screen. Data for tumor model ADJ-PC-20 Plasma Cell (subcutaneous) in unknown mice. To be noted: endpoint: mean tumor weight, higher = larger tumour. Here is the method: The antitumor activity of compounds was measured in mice bearing transplantable tumors. Survival or tumor size were measured and the results are expressed as the measurement made in the treated group (T) divided by the measurement made in the vehicle treated control group (C). The tumor model used in this assay is ADJ-PC-20 Plasma Cell (subcutaneous) in unknown mice

[1] abbreviates: dose: 100.0 mg/kg/injection, schedule: Q01DX010 (ip), vehicle: other.
[2] abbreviates: dose: 3.1 mg/kg/injection, schedule: Q01DX010 (ip), vehicle: carboxymethylcellulose (CMC).
Setting [3] is: dose: 6.3 mg/kg/injection, schedule: Q01DX010 (ip), vehicle: carboxymethylcellulose (CMC).
Setting [4] is: dose: 12.5 mg/kg/injection, schedule: Q01DX010 (ip), vehicle: carboxymethylcellulose (CMC).
Setting [5] is: dose: 25.0 mg/kg/injection, schedule: Q01DX010 (ip), vehicle: carboxymethylcellulose (CMC).
The mark [6] stands for this setting: dose: 5.0 mg/kg/injection, schedule: Q01DX010 (sc), vehicle: steriod suspending solution.
Setting [7] is: dose: 10.0 mg/kg/injection, schedule: Q01DX010 (sc), vehicle: steriod suspending solution.

Where “and” joins values, the source holds several entries; their conditions need not be identical. Equal values may be shown once. Records with an inconclusive call do not appear. Numbered stars: 1 amine (or outer) side, 2 acyl side, 3 side chain; on linkers, the order of the positions; unused ones are H or OH. Bridge positions count the residues as written; N and C are the ends. Square brackets hold non-standard residues; d marks the D form. Peptide text beside a SMILES is read from it. I, II: the chains in the order shown. Actinocin(9to1) = Cc1c2oc3c(C)ccc(C(=O)[*:1])c3nc-2c(C(=O)[*:2])c(N)c1=O; aThr = C[C@H](O)[C@H](N)C(=O)O; NMeV = CN[C@H](C(=O)O)C(C)C; Sar = CNCC(=O)O

As for `CN(Cc1cnc2nc(N)nc(N)c2n1)c1ccc(C(=O)N[C@@H](CCC(=O)O)C(=O)O)cc1`, the T/C (dose: 0.04 mg/kg/injection, schedule: Q01DX010 (ip), vehicle: other) was 117 % of control; the T/C (dose: 0.08 mg/kg/injection, schedule: Q01DX010 (ip), vehicle: other) was 107 % of control; the T/C (dose: 0.15 mg/kg/injection, schedule: Q01DX010 (ip), vehicle: other) was 78 % of control; the T/C (dose: 0.31 mg/kg/injection, schedule: Q01DX011 (ip), vehicle: other) was 46 % of control; the T/C (dose: 0.62 mg/kg/injection, schedule: Q01DX010 (ip), vehicle: other) was 68 % of control and 89 % of control; the T/C (dose: 0.62 mg/kg/injection, schedule: Q01DX011 (ip), vehicle: other) was 59 % of control. In addition, the T/C (dose: 0.63 mg/kg/injection, schedule: Q01DX010 (ip), vehicle: other) is 88 % of control and 107 % of control.

For `Cc1n[nH]c(=O)[nH]c1=O`, the T/C runs as follows: under setting [1], 80 % of control; (dose: 200.0 mg/kg/injection, schedule: Q01DX010 (ip), vehicle: other) 85 % of control.

Take `CCOC(N)=O`: the T/C (dose: 250.0 mg/kg/injection, schedule: Q01DX010 (ip), vehicle: saline) was 80 % of control and 95 % of control.

For `Nc1nc2n[nH]nc2c(=O)[nH]1`, the T/C is 113 % of control (dose: 12.5 mg/kg/injection, schedule: Q01DX010 (ip), vehicle: other); 58 % of control (dose: 75.0 mg/kg/injection, schedule: Q01DX010 (ip), vehicle: other); 83 % of control under setting [1].

On to `[I][Hg][CH2]C1COC([CH2][Hg][I])CO1` (stereo not drawn), for which the T/C by setting is: (dose: 3.75 mg/kg/injection, schedule: Q01DX010 (ip), vehicle: carboxymethylcellulose (CMC)) 87 % of control; (dose: 7.5 mg/kg/injection, schedule: Q01DX010 (ip), vehicle: carboxymethylcellulose (CMC)) 111 % of control; (dose: 15.0 mg/kg/injection, schedule: Q01DX010 (ip), vehicle: carboxymethylcellulose (CMC)) 104 % of control; (dose: 30.0 mg/kg/injection, schedule: Q01DX010 (ip), vehicle: carboxymethylcellulose (CMC)) 115 % of control.

For `CCCCn1cnc2c(=S)nc[nH]c21`, the T/C is 74 % of control (dose: 0.8 mg/kg/injection, schedule: Q01DX010 (ip), vehicle: carboxymethylcellulose (CMC)); 68 % of control (dose: 1.6 mg/kg/injection, schedule: Q01DX010 (ip), vehicle: carboxymethylcellulose (CMC)); 52 % of control under setting [2]; 41 % of control under setting [3]; 15 % of control under setting [4]; 1 % of control under setting [5].

As to `C1CN1c1nc(N2CC2)nc(N2CC2)n1`, the T/C is, setting by setting: (dose: 0.01 mg/kg/injection, schedule: Q01DX010 (ip), vehicle: saline) 38 % of control; (dose: 1.9 micrograms/kg/injection, schedule: Q01DX010 (ip), vehicle: saline) 170 % of control; (dose: 7.8 micrograms/kg/injection, schedule: Q01DX010 (ip), vehicle: saline) 100 % of control; (dose: 8.0 micrograms/kg/injection, schedule: Q01DX010 (ip), vehicle: saline) 101 % of control; (dose: 15.0 micrograms/kg/injection, schedule: Q01DX010 (ip), vehicle: saline) 99 % of control; (dose: 31.0 micrograms/kg/injection, schedule: Q01DX010 (ip), vehicle: saline) 105 % of control. Also, the T/C is, setting by setting: (dose: 31.2 micrograms/kg/injection, schedule: Q01DX010 (ip), vehicle: saline) 37 % of control; (dose: 63.0 micrograms/kg/injection, schedule: Q01DX010 (ip), vehicle: saline) 66 % of control.

For the compound `OCC1OC(n2cnc3c(Cl)ncnc32)C(O)C1O` (stereo not drawn), the T/C is 100 % of control (dose: 125.0 mg/kg/injection, schedule: Q01DX010 (ip), vehicle: carboxymethylcellulose (CMC)); 107 % of control (dose: 250.0 mg/kg/injection, schedule: Q01DX010 (ip), vehicle: carboxymethylcellulose (CMC)); 93 % of control (dose: 500.0 mg/kg/injection, schedule: Q01DX010 (ip), vehicle: carboxymethylcellulose (CMC)); 35 % of control (dose: 1000.0 mg/kg/injection, schedule: Q01DX010 (ip), vehicle: carboxymethylcellulose (CMC)).

Regarding `CC(=O)O[C@]1(C(C)=O)CC[C@H]2[C@@H]3C[C@H](C)C4=CC(=O)C=C[C@]4(C)[C@@]3(F)[C@@H](O)C[C@@]21C`, the T/C under setting [6] was 82 % of control; the T/C under setting [7] was 55 % of control; the T/C (dose: 20.0 mg/kg/injection, schedule: Q01DX010 (sc), vehicle: steriod suspending solution) is 74 % of control; the T/C (dose: 40.0 mg/kg/injection, schedule: Q01DX010 (sc), vehicle: steriod suspending solution) is 73 % of control; the T/C (dose: 80.0 mg/kg/injection, schedule: Q01DX010 (sc), vehicle: steriod suspending solution) was 33 % of control.

For the compound `Cc1c2oc3c(C)ccc(C(=O)N[C@@H]4C(=O)N[C@H](C(C)C)C(=O)N5CCC[C@H]5C(=O)N(C)CC(=O)N(C)[C@@H](C(C)C)C(=O)O[C@H]4C)c3nc-2c(C(=O)N[C@@H]2C(=O)N[C@H](C(C)C)C(=O)N3CCC[C@H]3C(=O)N(C)CC(=O)N(C)[C@@H](C(C)C)C(=O)O[C@H]2C)c(N)c1=O` (I: [aThr][dV]P[Sar][NMeV] / II: [aThr][dV]P[Sar][NMeV]; ester I:1-I:C, II:1-II:C; linker I:N-II:N via Actinocin(9to1)), the T/C was 161 % of control (dose: 4.7 micrograms/kg/injection, schedule: Q01DX010 (ip), vehicle: saline); 193 % of control (dose: 6.2 micrograms/kg/injection, schedule: Q01DX010 (ip), vehicle: saline); 87 % of control (dose: 9.4 micrograms/kg/injection, schedule: Q01DX010 (ip), vehicle: saline); 93 % of control (dose: 12.5 micrograms/kg/injection, schedule: Q01DX010 (ip), vehicle: saline).

On to `C[C@]12CCC(=O)C=C1CC[C@H]1[C@@H]3CC[C@](O)(C(=O)CO)[C@@]3(C)C[C@H](O)[C@@]12F`, for which the T/C runs as follows: (dose: 2.5 mg/kg/injection, schedule: Q01DX010 (sc), vehicle: steriod suspending solution) 62 % of control; under setting [6], 43 % of control; under setting [7], 33 % of control.

For the compound `Nc1nc(N)c2nc(CNc3ccc(C(=O)NC(CCC(=O)O)C(=O)O)cc3)cnc2n1` (stereo not drawn), the T/C (dose: 63.0 micrograms/kg/injection, schedule: Q01DX010 (ip), vehicle: alkali diluted with saline) was 86 % of control and the T/C (dose: 125.0 micrograms/kg/injection, schedule: Q01DX010 (ip), vehicle: alkali diluted with saline) is 82 % of control.

For the compound `C[C@@H]1C[C@@H]([C@H](O)CC2CC(=O)NC(=O)C2)C(=O)[C@@H](C)C1`, the T/C by setting is: (dose: 1.6 mg/kg/injection, schedule: Q01DX010 (ip), vehicle: water) 91 % of control; (dose: 3.1 mg/kg/injection, schedule: Q01DX010 (ip), vehicle: water) 84 % of control; (dose: 6.25 mg/kg/injection, schedule: Q01DX010 (ip), vehicle: saline) 50 % of control; (dose: 6.3 mg/kg/injection, schedule: Q01DX010 (ip), vehicle: water) 78 % of control.

Regarding `COC(=O)c1nc(-c2ccc3c(n2)C(=O)C(N)=C(OC)C3=O)c(N)c(-c2ccc(OC)c(OC)c2O)c1C`, the T/C (dose: 0.35 mg/kg/injection, schedule: Q01DX010 (ip), vehicle: other) is 71 % of control; the T/C (dose: 0.65 mg/kg/injection, schedule: Q01DX010 (ip), vehicle: other) is 60 % of control; the T/C (dose: 1.08 mg/kg/injection, schedule: Q01DX010 (ip), vehicle: other) is 32 % of control; the T/C (dose: 1.8 mg/kg/injection, schedule: Q01DX010 (ip), vehicle: other) was 4 % of control.

Consider `S=P(N1CCOCC1)(N1CC1)N1CC1`, for which the T/C was 88 % of control and 100 % of control under setting [2]; 116 % of control under setting [3]; 1 % of control under setting [4].

Take `C[n+]1c2ccccc2nc2c(N)cc(N)cc21`: the T/C runs as follows: (dose: 6.25 mg/kg/injection, schedule: Q01DX010 (ip), vehicle: carboxymethylcellulose (CMC)) 92 % of control; under setting [4], 114 % of control; under setting [5], 99 % of control.

For `CN(C)c1ccc(/C=C/c2ccnc3ccccc23)cc1`, the T/C is 117 % of control (dose: 2.0 mg/kg/injection, schedule: Q01DX010 (ip), vehicle: carboxymethylcellulose (CMC)); 81 % of control (dose: 4.0 mg/kg/injection, schedule: Q01DX010 (ip), vehicle: water); 89 % of control and 99 % of control (dose: 16.0 mg/kg/injection, schedule: Q01DX010 (ip), vehicle: carboxymethylcellulose (CMC)); 78 % of control (dose: 16.0 mg/kg/injection, schedule: Q01DX010 (ip), vehicle: water); 28 % of control (dose: 32.0 mg/kg/injection, schedule: Q01DX010 (ip), vehicle: carboxymethylcellulose (CMC)).

The values above are taken from PubChem BioAssay AID332 (DTP/NCI, 2004).
